pEC50: −log10 of the molar value.
How the values were obtained:
A/Uruguay/716/2007 = experiment: 3-day CP assay in MDCK cells; type: cell-based; details: Influenza A virus
A/Equine/Miami/63 = experiment: microbe, parasite or virus in culture; type: cell-based; details: Influenza A virus, MDCK
A/Virginia/01/2006 = experiment: 3-day CP assay in MDCK cells; type: cell-based; details: Influenza A virus
B/Memphis/20/1996--070 = experiment: 3-day CP assay in MDCK cells; type: cell-based; details: Influenza B virus
A/New Jersey/8/76 = experiment: microbe, parasite or virus in culture; type: cell-based; details: Influenza A virus, MDCK
A/Port Chalmers/1/73 = experiment: 3-day CP assay in MDCK cells; type: cell-based; details: Influenza A virus
B/Memphis/20/1996--071 = experiment: 3-day CP assay in MDCK cells; type: cell-based; details: Influenza B virus
A/Mexico/4108/2009 = experiment: 3-day CP assay in MDCK cells; type: cell-based; details: Influenza A virus
B/Lee/40 = experiment: 3-day CP assay in MDCK cells; type: cell-based; details: Influenza B virus
A/Weiss/43 = experiment: 3-day CP assay in MDCK cells; type: cell-based; details: Influenza A virus
A/Swine/Iowa/15/30 = experiment: microbe, parasite or virus in culture; type: cell-based, influenza A; details: read-out: EC50
A/Georgia/20/2006 = experiment: 3-day CP assay in MDCK cells; type: cell-based, influenza A
A/Hong Kong/8/68 = experiment: 3-day CP assay in MDCK cells; type: cell-based; details: Influenza A virus
A/Virginia/ATCC3/2009 = experiment: 3-day CP assay in MDCK cells; type: cell-based; details: Influenza A virus
A/VN/1203/2004 (H5N1) = experiment: microbe, parasite or virus in culture; type: cell-based; details: Influenza A virus, H5N1, MDCK
A/Wisconsin/67/2005 = experiment: 3-day CP assay in MDCK cells; type: cell-based; details: Influenza A virus
A/WS/33 = experiment: 3-day CP assay in MDCK cells; type: cell-based; details: Influenza A virus
A/Santiago/7981/2006 = experiment: 3-day CP assay in MDCK cells; type: cell-based; details: Influenza A virus
A/Texas/48/2009 = experiment: 3-day CP assay in MDCK cells; type: cell-based; details: Influenza A virus
influenza A = experiment: Influenza A mouse model, Compound (1) with or without oseltamivir; type: in vivo, Mice; details: for Percent Survival: 10 days
Method: Referring to FIG. 32, the potential for a positive therapeutic interaction between Compound (1) and oseltamivir against influenza A was explored in the mouse model. Mice were challenged with influenza A and dosed with vehicle (10 mL/kg 0.5% MC) or Compound (1) at 1, 3, 10, or 30 mg/kg BID alone, or in combination with 10 mg/kg BID oseltamivir. Therapy was started 48 hours post influenza A infection and continued for 10 days. All of the vehicle-treated controls succumbed to disease by study day 8 (Table 21).

[1] = system: influenza type A (H1N1, H3N2, and H3N8) viral strains; type: cell-based
A/FM/1/47 = experiment: 3-day CP assay in MDCK cells; type: cell-based; details: Influenza A virus
A/New York/18/2009 = experiment: 3-day CP assay in MDCK cells; type: cell-based; details: Influenza A virus
A/Cambodia0371/2007 = experiment: 3-day CP assay in MDCK cells; type: cell-based; details: Influenza A virus
A/Victoria/3/75 = experiment: 3-day CP assay in MDCK cells; type: cell-based; details: Influenza A virus
A/Nebraska/1/2006 = experiment: 3-day CP assay in MDCK cells; type: cell-based; details: Influenza A virus
B/Mass/3/66 = experiment: 3-day CP assay in MDCK cells; type: cell-based; details: Influenza B virus
A/Mal/302/54 = experiment: 3-day CP assay in MDCK cells; type: cell-based; details: Influenza A virus
A/Denver/1/57 = experiment: 3-day CP assay in MDCK cells; type: cell-based; details: Influenza A virus
A/Puerto Rico/8/34 = experiment: 3-day CP assay in MDCK cells; type: cell-based; details: Influenza A virus
A/Texas/12/2007 = experiment: 3-day CP assay in MDCK cells; type: cell-based; details: Influenza A virus
A/South Dakota/6/2007 = experiment: 3-day CP assay in MDCK cells; type: cell-based; details: Influenza A virus
A/Swine/1976/31 = experiment: microbe, parasite or virus in culture; type: cell-based; details: Influenza A virus, MDCK, in Sus scrofa
A/Georgia/17/2006 = experiment: 3-day CP assay in MDCK cells; type: cell-based; details: Influenza A virus
A/Missouri/3/2006 = experiment: 3-day CP assay in MDCK cells; type: cell-based; details: Influenza A virus
B/Russia/69 = experiment: 3-day CP assay in MDCK cells; type: cell-based; details: Influenza B virus
A/California/07/2009 = experiment: 3-day CP assay in MDCK cells; type: cell-based; details: Influenza A virus, H1N1, MDCK, in Sus scrofa
influenza B = experiment: Influenza B mouse model, Compound (1) with oseltamivir; type: in vivo, Mice
Method: The consequence of combining Compound (1) and oseltamivir was explored in the influenza B mouse model. Mice were dosed prophylactically with vehicle (10 mL/kg 0.5% MC), 10 mg/kg oseltamivir, or oseltamivir in combination with Compound (1) at 10 mg/kg, 30 mg/kg or 60 mg/kg BID and treatment continued for 10 days.

Question: `CC(C)(C)[C@@H](CC(=O)O)Nc1nc(-c2c[nH]c3ncc(F)cc23)ncc1F` [Compound (1)] was tested. Which pEC50 (A/Uruguay/716/2007) did it give?
Answer: 9.00

Question: And the pEC50 (A/Equine/Miami/63)?
Answer: 8.43

Question: And the pEC50 (A/Virginia/01/2006)?
Answer: 7.92

Question: What about the pEC50 (B/Memphis/20/1996--070) of the same compound?
Answer: < 5.00

Question: And the pEC50 (A/New Jersey/8/76)?
Answer: 9.02

Question: What about the pEC50 (A/Port Chalmers/1/73) of the same compound?
Answer: 8.64

Question: And the pEC50 (B/Memphis/20/1996--071)?
Answer: < 5.00

Question: And the pEC50 (A/Mexico/4108/2009)?
Answer: 8.43

Question: What about the pEC50 (B/Lee/40) of the same compound?
Answer: < 5.00

Question: And the pEC50 (A/Weiss/43)?
Answer: 8.89

Question: What about the pEC50 (A/Swine/Iowa/15/30) of the same compound?
Answer: 8.37

Question: And the pEC50 (A/Georgia/20/2006)?
Answer: 8.77

Question: And the pEC50 (A/Hong Kong/8/68)?
Answer: 8.72

Question: And the pEC50 (A/Virginia/ATCC3/2009)?
Answer: 8.92

Question: What about the pEC50 (A/VN/1203/2004 (H5N1)) of the same compound?
Answer: 8.38

Question: What about the pEC50 (A/Wisconsin/67/2005) of the same compound?
Answer: 8.43

Question: What about the pEC50 (A/WS/33) of the same compound?
Answer: 8.62

Question: What about the pEC50 (A/Santiago/7981/2006) of the same compound?
Answer: 8.74

Question: What about the pEC50 (A/Texas/48/2009) of the same compound?
Answer: 8.92

Question: What about the protection from mortality (influenza A; 1 or 3 mg/kg BID Compound (1) with 10 mg/kg oseltamivir dosed BID) of the same compound?
Answer: increased protection from mortality compared to the single agents

Question: What about the “Percent Survival” value (influenza A; Compound (1) 1 mg/kg BID alone, started +48 hours after infection) of the same compound?
Answer: 0%

Question: What about the “Percent Survival” value (influenza A; Compound (1) 1 mg/kg BID in combination with oseltamivir 10 mg/kg BID, +48 hours) of the same compound?
Answer: 87.5%

Question: What about the “Percent Survival” value (influenza A; Compound (1) 3 mg/kg BID alone, started +48 hours after infection) of the same compound?
Answer: 75%

Question: And the “Percent Survival” value (influenza A; Compound (1) 3 mg/kg BID in combination with oseltamivir 10 mg/kg BID, +48 hours)?
Answer: 100%

Question: What about the “Percent Survival” value (influenza A; Compound (1) 10 mg/kg BID alone, started +48 hours after infection) of the same compound?
Answer: 100%

Question: What about the “Percent Survival” value (influenza A; Compound (1) 10 mg/kg BID in combination with oseltamivir 10 mg/kg BID, +48 hours) of the same compound?
Answer: 100%

Question: And the “Percent Survival” value (influenza A; Compound (1) 30 mg/kg BID alone, started +48 hours after infection)?
Answer: 100%

Question: And the “Percent Survival” value (influenza A; Compound (1) 30 mg/kg BID in combination with oseltamivir 10 mg/kg BID, +48 hours)?
Answer: 100%

Question: And the protection from mortality (influenza A; Compound (1) at 3 mg/kg BID alone)?
Answer: partial survival benefit

Question: And the protection from mortality (influenza A; Compound (1) at 10 or 30 mg/kg BID alone)?
Answer: complete protection from mortality

Question: And the protection from mortality (influenza A; administered alone: Compound (1) 1 mg/kg BID, oseltamivir 10 mg/kg)?
Answer: failed to protect mice from influenza infection

Question: What about the “interaction of Compound (1) and oseltamivir combination” value (influenza A; combination with oseltamivir) of the same compound?
Answer: synergistic effect

Question: And the pEC50 [1]?
Answer: 8.37

Question: What about the pEC50 (A/FM/1/47) of the same compound?
Answer: 8.82

Question: What about the pEC50 (A/New York/18/2009) of the same compound?
Answer: 8.85

Question: What about the pEC50 (A/Cambodia0371/2007) of the same compound?
Answer: 8.92

Question: What about the pEC50 (A/Victoria/3/75) of the same compound?
Answer: 8.68

Question: What about the pEC50 (A/Nebraska/1/2006) of the same compound?
Answer: 8.72

Question: What about the pEC50 (B/Mass/3/66) of the same compound?
Answer: < 5.00

Question: What about the pEC50 (A/Mal/302/54) of the same compound?
Answer: 8.41

Question: What about the pEC50 (A/Denver/1/57) of the same compound?
Answer: 8.85

Question: What about the pEC50 (A/Puerto Rico/8/34) of the same compound?
Answer: 7.85

Question: And the pEC50 (A/Texas/12/2007)?
Answer: 7.52

Question: What about the pEC50 (A/South Dakota/6/2007) of the same compound?
Answer: 9.28

Question: And the pEC50 (A/Swine/1976/31)?
Answer: 8.28

Question: And the pEC50 (A/Georgia/17/2006)?
Answer: 8.04

Question: And the pEC50 (A/Missouri/3/2006)?
Answer: 8.59

Question: What about the pEC50 (B/Russia/69) of the same compound?
Answer: < 5.00

Question: And the pEC50 (A/California/07/2009)?
Answer: 8.40

Question: What about the “survival benefit and protection from BW and lung function loss” value (influenza B; 10, 30 or 60 mg/kg BID Compound (1) in combination with oseltamivir 10 mg/kg BID, prophylactic, 10 days) of the same compound?
Answer: the same survival benefit and protection from BW and lung function loss as oseltamivir treatment alone

Question: And the “interaction when added to oseltamivir therapy” value (influenza B; Compound (1) added to oseltamivir therapy)?
Answer: no negative interaction

Question: What about the “activity against influenza B” value (influenza B; mouse, in vivo) of the same compound?
Answer: lack of Compound (1) activity against influenza B
